Experiments:
Factor XIa = Factor XIa (Homo sapiens, UniProt P03951); test: Factor XIa inhibition assay using fluorophore-quencher pair peptide substrate; format: biochemical
From the text: Biological Example 1: Factor XIa Inhibition Assay
Using Fluorophore-quencher Pair Peptide Substrate
A fluorescence intensity-based assay was used to monitor inhibition of Factor XIa. The peptide substrate, 5Fam-[…]-K5Tamra (purchased from New England Peptide) was chosen based on the […]. Conversion of zymogen FIX to its activated form, FIXa, occurs by proteolytic cleavage by FXIa at two sites, Arg146 and Arg180. The custom peptide used in this assay was based on the Arg146 cleavage site. The peptide substrate was designed with a fluorophore-quencher pair, where the fluorescence is quenched until FXIa cleaves the 8-mer peptide after the Arg residue.
Factor XIa FLINT assay was used with the following 5Fam-[…]-K5Tamra assay buffer: 50 mM Tris, pH 7.5, 100 mM NaCl, 5 mM CaCl2, 0.1 mg/mL BSA, 0.03% CHAPS was used. Assay buffer was prepared by mixing all ingredients fresh. 2×5Fam-[…]-K5Tamra peptide substrate was first prepared in 100% DMSO, then diluted 10 mM to 3 mM in 100% DMSO. Assay buffer was then added directly to the 3 mM stock of substrate to prepare the 30 μM 2× working concentration (15 μM final concentration). The 2× Factor XIa stock solution was prepared by diluting 6.562 μM stock in 1× assay buffer for a 200 pM working stock solution (100 pM final concentration).
Test compound(s) were run in an 11-point, 3-fold serial dilution with a final top compound concentration of […]. Final DMSO in assay was 2% DMSO. FXIa and compound were pre-incubated for 30 minutes and substrate was then added to initiate the reaction. The assay was linear using 100 pM FXIa greater than 30 minutes. More specifically, the assay was run as follows: • 100 nL of 1 mM test compound was dispensed into a black 384-well non-binding Greiner BioOne 784900 plate for 10 μM final concentration with 1% DMSO final concentration; • 5 μL of 1× assay buffer was dispensed to column 24 (low control) and 5 μL 2× Factor XIa solution was dispensed to columns 1-23 (column 23 high control); • the plate was centrifuged with a “cover” plate at 500 rpm for 1 min • the plate was pre-incubated for 30 minutes at room temperature with plate covered; • 5 μL of 2× 5Fam-[…]-K5Tamra peptide substrate was dispensed into the entire plate, columns 1-24; • the plate was centrifuged with a cover plate at 500 rpm for 1 min; • the plate was read kinetically monitoring fluorescence intensity on the BMG PHERAStar at room temperature, using fluorescence module F1 485 mm/520 mm.
(§1) Percent inhibition (IC50) curves were generated per compound tested, and data was analyzed using a 4-parameter logistic fit using GeneData Screener. […]

human plasma kallikrein = human plasma kallikrein (Homo sapiens, UniProt P03952); test: Kallikrein inhibition assay utilizing quenched AMC peptide substrate; format: biochemical; settings: read-out: Plasma kallikrein (PK) IC50
Chain of human plasma kallikrein (P03952 391-638 limits assumed): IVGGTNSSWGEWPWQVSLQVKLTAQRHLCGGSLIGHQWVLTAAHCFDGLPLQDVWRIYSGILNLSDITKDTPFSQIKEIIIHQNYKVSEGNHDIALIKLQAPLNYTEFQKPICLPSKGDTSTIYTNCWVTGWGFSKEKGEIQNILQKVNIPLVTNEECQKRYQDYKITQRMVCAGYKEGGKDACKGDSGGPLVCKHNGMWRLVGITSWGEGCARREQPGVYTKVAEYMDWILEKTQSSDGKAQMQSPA
Chain of human plasma kallikrein (P03952 20-390 partner limits assumed): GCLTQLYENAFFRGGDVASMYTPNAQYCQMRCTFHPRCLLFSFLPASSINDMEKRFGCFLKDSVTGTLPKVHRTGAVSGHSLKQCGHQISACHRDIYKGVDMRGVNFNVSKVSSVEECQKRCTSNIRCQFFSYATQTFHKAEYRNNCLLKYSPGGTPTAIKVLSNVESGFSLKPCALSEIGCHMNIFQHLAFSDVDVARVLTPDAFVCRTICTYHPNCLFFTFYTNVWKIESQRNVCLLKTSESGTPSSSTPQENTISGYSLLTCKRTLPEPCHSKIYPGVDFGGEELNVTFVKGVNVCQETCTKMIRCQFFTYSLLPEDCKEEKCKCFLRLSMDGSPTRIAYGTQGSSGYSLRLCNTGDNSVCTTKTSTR
Procedure: Biological Example 2: Kallikrein Inhibition Assay
Utilizing Quenched AMC Peptide Substrate
A fluorescence intensity-based assay was used to monitor inhibition of human plasma kallikrein. The peptide substrate, Z-Gly-Pro-Arg-AMC (Purchased from Bachem; Catalog #1-1150) was chosen based on its relatively low KM for kallikrein which enables running the assay at lower substrate concentrations to control background fluorescence. The kinetic parameters for this substrate were determined by fitting titration data to the Michaelis-Menten equation yielding a KM=40 μM, kcat=0.76 s^−1, and kcat/KM=18932 M^−1s^−1.
Kallikrein FLINT assay was used with the following Z-Gly-Pro-Arg-AMC assay buffer: 50 mM Tris, pH 7.5, 100 mM NaCl, 5 mM CaCl2, 0.1 mg/mL BSA, 0.03% CHAPS. Assay buffer was prepared by mixing all ingredients fresh. 2× Z-Gly-Pro-Arg-AMC peptide substrate was prepared by diluting 10 mM stock into 1× assay buffer for a 100 μM working concentration (50 μM final concentration). The 2× kallikrein stock solution was prepared by diluting 14.76 μM stock in 1× assay buffer for a 4 nM working stock solution (2 nM final concentration).
Test compound(s) were run in an 11-point, 3-fold serial dilution with a final top compound concentration of 1 μM. Final DMSO in assay: 2% DMSO. 2 nM kallikrein and test compound were pre-incubated for 30 minutes and 50 μM substrate was then added to initiate the reaction. The assay was linear using 2 nM kallikrein greater than 30 minutes. More specifically, the assay was run as follows: • 100 nL of 1 mM test compound was dispensed into a black 384-well non-binding Greiner BioOne 784900 plate for 10 μM final concentration with 1% DMSO final concentration; • 5 μL of 1× assay buffer was dispensed to columns 24 (low control) and 5 μL 2× human kallikrein enzyme solution was dispensed to columns 1-23 (column 23 high control); • the plate was centrifuged with a cover plate at 500 rpm for 1 min • the plate was pre-incubated for 30 minutes at room temperature with plate covered; • 5 μL of 2× Z-Gly-Pro-Arg-AMC peptide substrate was dispensed into the entire plate, columns 1-24; • the plate was centrifuged with a “cover” plate at 500 rpm for 1 min; • the plate was read kinetically monitoring fluorescence intensity on the BMG PHERAStar at room temperature, using fluorescence module F1 340 mm/440 mm.
as §1

human hepatocytes = test: In vitro metabolism in human cryopreserved hepatocytes; format: in vitro ADME; settings: positive control, 10 μM, 1×10^6 cells/mL, 3 hours
Procedure: In Vitro Metabolism of in Human Cryopreserved Hepatocytes
The human hepatocytes used for in vitro metabolism of the compound of formula (I-A) were purchased from Bioreclamation IVT (Westbury, NY); cryopreserved human hepatocytes (lot number: UYG).
Cryopreserved hepatocytes were rapidly thawed […] vials were placed in a 37° C. water bath for approximately 90 sec, then immediately added to pre-warmed hepatocyte thawing media. The cells were resuspended within the media and then centrifuged at 700×g for 7 minutes at room temperature.
The supernatant was discarded, and the cells were resuspended in 2 mL of Krebs-Henseleit buffer containing 12.5 mM HEPES pH 7.4 (KHB). Cell viability and yield were determined by Trypan Blue exclusion. The hepatocytes were then diluted in KHB to a cell concentration of 2×10^6 cells/mL (500 μL/well in 10 mL glass tubes). The tubes were placed on a rotary shaker in a humidifier incubator supplied with 5% CO2 and allowed 15 minutes acclimation at 37° C. prior to use. The compound of formula (I-A) or positive control, diclofenac (10 μM), in KHB was then added to the hepatocytes to achieve a final concentration of 10 μM and cell concentration of 1×10^6 cells/mL (1000 μL final incubation volume). Cells were incubated for zero or 3 hours. At the end of the incubation period, the cells were quenched with 6-volumes of ice-cold acetonitrile containing 0.02% formic acid, vortexed and sonicated (5 min). Precipitated proteins were pelleted by centrifugation (3000 rpm, 10 minutes, 4° C.) and the supernatant was transferred to borosilicate tubes and evaporated to dryness under a gentle stream of nitrogen.
The resulting residue after evaporation was reconstituted in 250 μL of water:acetonitrile (9:1 v/v) containing 0.01% formic acid with sonication and vortexing to aid solubilization of drug-derived materials prior to filtration using 0.45μ nylon filter at 10,000×g at room temperature for 10 minutes. The filtrate was transferred to a 96-well plate for liquid chromatography/ultraviolet/mass spectrometry (LC-UV/MS) analysis.
LC/UV/MS (Liquid Chromatography/Ultraviolet/Mass Spectrometry)
LTQ/Orbitrap (Thermo Scientific, Inc., Bremen, Germany) was carried out by data-dependent accurate mass measurements at resolving powers of 15,000 for full scan MS and 7,500 for MS^2 (also known as MS/MS or tandem mass spec) under single ion locked mass mode.
Quantification of the unchanged drug and its metabolites was carried out by integration of the individual chromatographically separated UV peaks and provided the percentage of total peak area.

Chain of Factor XIa (P03951 388-625 limits assumed): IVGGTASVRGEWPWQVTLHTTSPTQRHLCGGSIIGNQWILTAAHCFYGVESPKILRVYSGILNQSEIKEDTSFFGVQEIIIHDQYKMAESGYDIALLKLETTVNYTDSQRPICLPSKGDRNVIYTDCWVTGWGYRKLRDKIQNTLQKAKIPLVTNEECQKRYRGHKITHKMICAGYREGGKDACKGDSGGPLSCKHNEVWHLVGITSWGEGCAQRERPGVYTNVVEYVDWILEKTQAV
Chain of Factor XIa (P03951 19-387 partner limits assumed): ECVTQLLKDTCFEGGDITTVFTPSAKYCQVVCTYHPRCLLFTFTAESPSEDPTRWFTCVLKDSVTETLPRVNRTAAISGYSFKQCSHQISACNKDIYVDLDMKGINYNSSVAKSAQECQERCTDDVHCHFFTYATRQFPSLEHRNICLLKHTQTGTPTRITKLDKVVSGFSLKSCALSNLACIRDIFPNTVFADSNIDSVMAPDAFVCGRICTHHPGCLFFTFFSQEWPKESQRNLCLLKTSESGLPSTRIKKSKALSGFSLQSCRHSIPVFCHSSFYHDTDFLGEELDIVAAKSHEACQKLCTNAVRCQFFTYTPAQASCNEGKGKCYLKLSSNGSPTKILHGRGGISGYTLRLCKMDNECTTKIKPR

| IC50 (Factor XIa) | IC50 (human plasma kallikrein) | turnover from human hepatocytes (human hepatocytes) | Structure (SMILES) |
| --- | --- | --- | --- |
| 4.1 nM | 32 nM | – | [2H]c1nnnn1-c1ccc(Cl)c(F)c1C1=CC(=O)N2[C@@H](CC[C@@H]2c2ncc(-c3ccnc(C([2H])([2H])O)c3F)[nH]2)C1 (stereo in doubt) [Compound of formula (I-J), (3R,8aS)-7-(3-Chloro-2-fluoro-6-(1H-tetrazol-1-yl-d)phenyl)-3-(4-(3-fluoro-2-(hydroxymethyl-d2)pyridin-4-yl)-1H-imidazol-2-yl)-2,3,8,8a-tetrahydroindolizin-5(1H)-one] |
| – | 9.7 nM | – | [2H]C1([2H])C(c2c(-n3cnnn3)ccc(Cl)c2F)=CC(=O)N2[C@H](c3ncc(-c4ccnc(CO)c4F)[nH]3)CC[C@@]21[2H] (single isomer, unassigned) [Compound of formula (I-K)] |
| 5.1 nM | 34 nM | – | [2H]C([2H])(O)c1nccc(-c2cnc([C@@H]3CCC4([2H])CC(c5c(-n6cnnn6)ccc(Cl)c5F)=CC(=O)N34)[nH]2)c1F (single isomer, unassigned) [Compound of formula (I-F), (3S,8aR*)-7-(3-Chloro-2-fluoro-6-(1H-tetrazol-1-yl)phenyl)-3-(5-(3-fluoro-2-(hydroxymethyl-d2)pyridin-4-yl)-1H-imidazol-2-yl)-2,3,8,8a-tetrahydroindolizin-5(1H)-one-8a-d] |
| 3.9 nM | – | – | [2H]C1([2H])C[C@@H](c2ncc(-c3ccnc(CO)c3F)[nH]2)N2C(=O)C=C(c3c(-n4cnnn4)ccc(Cl)c3F)C([2H])([2H])[C@]21[2H] (single isomer, unassigned) [Compound of formula (I-G)] |
| – | – | 89% | O=C(O)Cc1ccccc1Nc1c(Cl)cccc1Cl [diclofenac, reference compound] |

— patent US12545677B2, “Compounds useful as factor XIa inhibitors” (JANSSEN PHARMACEUTICA NV, priority 2020, dated 2026)
